Data from patent publication US7163960B2, “Treatment and prevention of inflammatory disorders” (Monsanto Technology L.L.C., priority 2002, dated 2007).
Entries after “also recorded” stand apart in the source; their conditions may differ. Marks after values point to notes of the source that are not given here.

Assays:
C-reactive protein = assay: Clinical study of SDA on down-regulating C-reactive protein; type: in vivo, human; settings: Example 3, described in present tense; about 0.75 then 1.5 g/day
Excerpt: Approximately 35–50 males and post-menopausal female -19–65 years of age, normolipidemic, and with a body mass index (BMI) in the range 20 to 30, are recruited. Exclusion criteria include bleeding disorders, hypertension, inflammatory disorders, active gastrointestinal diseases, chronic use of low dose aspirin, consumption of restaurant or takeaway evening meals more than twice per week, use of dietary supplements rich in n-3 or n-6 fatty acids, habitual consumption of more than 1 fish meal per month, and plasma phospholipid EPA+DHA levels>7.9% of total fatty acids. Subjects are randomly allocated to one of three groups, designated ALA, SDA, and EPA. […]
C-reactive protein (Hs-CRP) in plasma can be analyzed by use of latex-enhanced immunonephelometric assay on a BN II analyzer (Rifai et al. Clinical efficacy of an automated high-sensitivity C-reactive protein assay. Clin. Chem […];45:2136). […]
Subjects are weighed at each visit for change in weight during the trial. […] Fatty acids are analyzed between dietary groups in EPA concentration in erythrocyte or plasma phospholipids. The effect of ingestion of EPA, ALA or SDA at 0.75 g/day (weeks 0 to 3) or 1.5 g/day (weeks 3 to 6) is determined with respect to EPA concentration in the phospholipid fractions of erythrocytes and plasma. Effects on DPA concentration in the phospholipid fractions of erythrocytes and plasma are also analyzed.

leukotrienes = settings: U.S. Pat. No. 5,158,975; cited from earlier work
TNF-α = TNF-α synthesis in LPS-treated whole blood; type: in vivo, human; settings: for TNF-α synthesis in LPS-treated whole blood: mean ± SD
Procedure: (§1) Following a 3-week run-in period, subjects ingested either ALA, SDA, EPA supplied as ethyl esters in capsules. Intakes were 0.75 g/day for 3 weeks followed by 1.5 g/day for the subsequent 3 weeks.
(§2) Blood (4 mL) was added to heparinised tubes, bacterial lipopolysaccharide (LPS) was added (200 ng/mL), and the mixture was incubated at 37° C., 5% CO2, for 24 h. Plasma was collected and assayed for prostaglandin E2 (PGE2) by radioimmunoassay (RIA), interleukin-1β (IL-1β) and tumor necrosis factor-α (TNF-α) by ELISA, as described in Mantzioris et al., supra.

IL-1β = IL-1β synthesis in LPS-treated whole blood; type: in vivo, human; settings: for IL-1β synthesis in LPS-treated whole blood: mean ± SD
Procedure: as §1, §2

[1] = Fatty acid analysis of blood cell phospholipids and plasma lipid fractions after ingestion of test fatty acids; type: in vivo, human
Excerpt: 45 males and post-menopausal female—19–65 years of age, normolipidemic, and with a body mass index (BMI) in the range 20 to 30, were recruited. Exclusion criteria included bleeding disorders, hypertension, inflammatory disorders, active gastrointestinal diseases, chronic use of low dose aspirin, consumption of restaurant or takeaway evening meals more than twice per week, use of dietary supplements rich in n-3 or n-6 fatty acids, habitual consumption of more than 1 fish meal per month, and plasma phospholipid EPA+DHA levels>7.9% of total fatty acids (level achieved in the study group was 4.9±1.0% of total fatty acids).
as §1
At each visit, 36 mL of blood was taken by venepuncture after an overnight fast. Blood was aliquoted into various tubes for the following procedures.
Blood (20 mL) was added to tubes containing 4 mL 4.5% EDTA in water and 4 mL—6% dextran in normal saline, pH 7.0. Erythrocytes were allowed to sediment under gravity at 37° C. for 30 min. The leucocyte-rich plasma was layered onto LYMPHOPREP, density 1.077 (Nycomed Pharma, Oslo) and centrifuged at 110 g for 10 min to separate leucocytes from the platelets, which were removed. The gradient was further centrifuged at 200 g for 20 min to separate the neutrophils from mononuclear cells, which were removed.
Samples were processed for fatty acid analysis as described in Mantzioris et al., Am. J. Clin. Nutr., 72:42–8 (2000). Plasma, washed platelet and mononuclear cell pellets were stored at −80° C. Erythrocyte pellets were treated fresh with chloroform:isopropanol (2:1) and the lipid extracts stored at 4° C. Plasma, platelet and mononuclear cell pellets were extracted with chloroform:methanol. The cellular and plasma lipid extracts were fractionated by thin-layer chromatography. For the cellular extracts, the phospholipid fraction was retained and for the plasma extracts, the phospholipid, cholesterol ester, and triglyceride fractions were retained. These were transesterified by methanolysis (1% H2SO4 in methanol at 70° C. for 3 h). Fatty acid methyl esters were separated and quantified with a HEWLETT-PACKARD 6890 gas chromatograph equipped with a 50 m capillary column coated with BPX-70 (0.25 μm film thickness; SGE Pty Ltd, Victoria, Australia) (see Mantzioris et al., supra). Fatty acid standards were obtained from NuChek Prep Inc. (Elysian, Minn.) and included stearidonic acid obtained from Sigma Aldrich Pty Ltd. (Castle Hill, NSW, Australia). All organic solvents contained butylated hydroxy anisole (0.005%) as an antioxidant.

prostaglandin E2 (PGE2) = assay: PGE2 synthesis in LPS-stimulated whole blood; type: in vivo, human; settings: for PGE2 synthesis in LPS-stimulated whole blood: mean ± SD
Procedure: as §1, §2

[2] = Week 3 (after 0.75 g/day for 3 weeks)
[3] = Week 6 (after 1.5 g/day for 3 weeks)
[4] = Week −3 (start of run-in, before dosing)

For CC/C=C\C/C=C\C/C=C\C/C=C\CCCCC(=O)O [SDA, stearidonic acid], the “Effect of SDA intake on C-reactive protein” value (C-reactive protein) is given as “decrease in C-reactive protein”, the “Effect on biosynthesis of leukotrienes” value (leukotrienes) is given as “inhibit biosynthesis of leukotrienes” and the “Effect on LPS-stimulated TNF synthesis” value (TNF-α; 1.5 g/day) is given as “statistically significant decreases”. For the same compound, the “TNF-α synthesis in LPS-treated whole blood” value (from here on “TNF-α synthesis”) (TNF-α; Week 0 (baseline)) was 43.7 ± 18.7^a ng/mL, the “TNF-α synthesis” value (TNF-α; [2]) was 37.7 ± 14.2^ab ng/mL and the “TNF-α synthesis” value (TNF-α; [3]) was 34.1 ± 12.0^b ng/mL. The “TNF-α synthesis” value (TNF-α; [4]) was 37.6 ± 14.6^ab ng/mL, the “Effect on LPS-stimulated IL-1β synthesis” value (IL-1β; 0.75 g/day or 1.5 g/day (either dose)) was “significantly decreased” and the “IL-1β synthesis in LPS-treated whole blood” value (IL-1β; Week 0 (baseline)) was 94.7 ± 29.3^b ng/mL. For the same compound, the “IL-1β synthesis in LPS-treated whole blood” value (IL-1β; [2]) was 81.4 ± 21.9^c ng/mL, the “IL-1β synthesis in LPS-treated whole blood” value (IL-1β; [3]) was 77.8 ± 26.4^c ng/mL and the “IL-1β synthesis in LPS-treated whole blood” value (IL-1β; [4]) was 106.9 ± 33.0^a ng/mL. For the same compound, the “Effect on EPA concentration in the phospholipid fractions of erythrocytes and plasma” value ([1]; 0.75 g/day (weeks 0 to 3)) was “significantly increased”, the “Effect on DPA concentration in the phospholipid fractions of erythrocytes and plasma” value ([1]; 1.5 g/day) was “significantly increased; also recorded: elevated” and the “Effect on EPA concentration in the phospholipid fractions of erythrocytes and plasma” value ([1]; 1.5 g/day (weeks 3 to 6)) was “significantly increased; also recorded: elevated”. For the same compound, the “Effect on tissue levels of DHA (FIG. 1)” value ([1]; erythrocytes and plasma phospholipids, 1.5 g/day) was “not DHA”, the “Efficiency relative to ALA at elevating tissue EPA levels” value ([1]; in humans) was “about four times more efficient than ALA” and the “Effect on LPS-stimulated PGE2 synthesis” value (prostaglandin E2 (PGE2); 1.5 g/day) was “no change”. For the same compound, the “Effect on LPS-stimulated PGE2 synthesis” value (prostaglandin E2 (PGE2); Visit 3, following ingestion of 0.75 g) was “statistically significant increases”, the “PGE2 synthesis in LPS-stimulated whole blood” value (prostaglandin E2 (PGE2); Week 0 (baseline)) was “*4.64 ± 1.09^a ng/mL” and the “PGE2 synthesis in LPS-stimulated whole blood” value (prostaglandin E2 (PGE2); [2]) was 6.26 ± 2.56^b ng/mL. For the same compound, the “PGE2 synthesis in LPS-stimulated whole blood” value (prostaglandin E2 (PGE2); [3]) was 4.61 ± 0.95^a ng/mL and the “PGE2 synthesis in LPS-stimulated whole blood” value (prostaglandin E2 (PGE2); [4]) was 3.97 ± 1.48^a ng/mL.
